Measured values reported in patent US9346818B2 (priority 2012, dated 2016).
“Also recorded” adds a separate entry of the source. Where two headings read alike, the source gives them in different places.

Experiments:
[1] = molecular target: acetylcholinesterase (Homo sapiens (Human), UniProt P22303); assay: biochemical; type: biochemical; conditions: for potency on acetylcholinesterase compared with positive control drug donepezil hydrochloride: in vitro, enzymology level; for IC50: read-out: IC50 (nM), inhibition activity on acetylcholinesterase
Chain of acetylcholinesterase (P22303 32-614, species assumed): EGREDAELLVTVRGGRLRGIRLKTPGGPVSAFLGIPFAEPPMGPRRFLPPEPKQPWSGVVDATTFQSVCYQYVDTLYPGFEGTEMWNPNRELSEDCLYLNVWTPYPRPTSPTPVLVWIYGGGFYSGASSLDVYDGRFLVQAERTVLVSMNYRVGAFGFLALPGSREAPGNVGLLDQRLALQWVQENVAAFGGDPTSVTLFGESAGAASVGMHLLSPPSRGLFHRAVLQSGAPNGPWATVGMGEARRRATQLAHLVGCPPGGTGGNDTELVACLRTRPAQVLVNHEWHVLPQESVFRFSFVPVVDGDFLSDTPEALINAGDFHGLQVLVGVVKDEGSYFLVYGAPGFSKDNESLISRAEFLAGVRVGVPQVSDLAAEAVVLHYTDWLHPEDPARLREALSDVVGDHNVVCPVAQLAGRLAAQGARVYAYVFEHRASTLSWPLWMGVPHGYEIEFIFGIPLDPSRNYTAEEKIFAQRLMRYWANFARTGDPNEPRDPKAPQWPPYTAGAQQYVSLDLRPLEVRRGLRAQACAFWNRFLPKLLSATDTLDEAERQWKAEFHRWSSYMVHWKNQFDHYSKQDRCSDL

[2] = test system: learning and memory disorder induced by intracerebroventricular injection of Aβ1-42; assay: Morris water maze test, rats with intracerebroventricular injection of Aβ1-42; type: in vivo; conditions: for The period of reaching the platform for the first time (latent period) / times of crossing platform: 8 days
Procedure: The model of learning and memory disorder induced after intracerebroventricular injection of Aβ1-42 is the most common animal model for evaluating whether a compound has the effect of improving the learning and memory. […] Morris water maze test and the model of learning and memory disorder induced by intracerebroventricular injection of Aβ1-42 were employed in the present research, and the improvement effects of I-33 on learning and memory of rats at various concentration (0.7 mg/Kg, 3.5 mg/Kg, and 7 mg/Kg) were evaluated.
SD, male (220±20 g), the animals were fed in light: dark cycle (12 h/12 h) in a cleaning level of animal room, ad lib. The tests were performed after 3 days acclimation in the animal room. Aβ1-42 was formulated to 2 μg/μl according to the instruction of specification.
(1) Normal group: intracerebroventricular injection of physiological saline
(2) Model group with intracerebroventricular injection of Aβ1-42: intracerebroventricular injection of Aβ1-42
(4) I-33 (low concentration group): I-33 (0.7 mg/Kg)+intracerebroventricular injection of Aβ1-42
(5) I-33 (medium concentration group): I-33 (3.5 mg/Kg)+intracerebroventricular injection of Aβ1-42
(6) I-33 (high concentration group): I-33 (7 mg/Kg)+intracerebroventricular injection of Aβ1-42
Each rat in normal control group received intracerebroventricular injection of 5 μl of physiological saline, each rat in the other groups received intracerebroventricular injection of 5 μl of Aβ1-42. After the operation, the rats received the following tests after 1 week recovery period. […] The drugs were administered for 8 days, the training for water maze test was started on the 5th day, and the water maze test was formally started on the 9th day.

[3] = in vivo; conditions: mouse, in vivo
Procedure: (§1) Firstly, preliminary tests were performed, in order to determine the concentration of each compound, with just 0% mortality or just 100% mortality, before starting the formal tests. The animals were divided into groups by weight, various dosages of drugs were administered between 0%-100%. Dosage volume: 10 ml/kg. Dosage manner: intravenous injection or intragastric administration.
(§2) The animals were divided into 6 groups, with 5 animals per group.
(§3) The animals were divided into 6 groups, with 5 animals per group. […] Each animal was fasted 12 h before administration.
(§4) The animals were divided into 5 groups, with 5 animals per group.
(§5) The animals were divided into 5 groups, with 5 animals per group. […] Each animal was fasted 12 h before administration.
(§6) The toxic reaction and death of the animals after administration were observed, and mortality was counted. The results were analyzed with LD50 data processing software.

[4] = test system: white mice; assay: in vivo; conditions: for Mortality (%) / Number of death: 5 animals; for toxicity compared with donepezil hydrochloride: preliminary acute toxicity tests
Procedure: as §1, §2, §3, §4, §5, §6

[5] = Procedure: 0.3 ml of whole blood was collected at corresponding time point, anticoagulating with heparin, centrifuged at 4000 rpm for 10 min, the plasma was separated, 50 μL the plasma sample of rats was collected, 100 μL acetonitrile (containing 0.1% formic acid) was added, mixed under vortex for 1 min, centrifuged (12000 rpm) for 10 min, the supernatant was collected, analyzed with liquid chromatography-mass spectrometer, the area of peaks were recorded and used for the calculation of blood drug concentration, and the drug-time curve was plotted.
[6] = test system: learning and memory disorder of mice induced by scopolamine; assay: Morris water maze test, senile dementia mice model induced by scopolamine; type: in vivo; conditions: Table 4; 5 mg/kg intragastric; scopolamine 1 mg/kg
[7] = test system: malonaldehyde (MDA); assay: Biochemical indicators of brain tissues (MDA assay) in scopolamine mice; type: in vivo; conditions: brain tissue homogenate, 5 mg/kg
Procedure: After the behavior test was complete, the mice were sacrificed, brain tissues were collected (operated on an ice plate) and prepared into 10% of tissue homogenate with pre-cooled physiological saline, centrifuged (3000 rpm, 10 min), and the supernatant was subjected to malonaldehyde (MDA) assay following the kits.

[8] = Aβ1-42 rats, DPH 3 mg/Kg, I-33 all dosages tested
[9] = high concentration 7 mg/Kg intragastric, Aβ1-42 rats
[10] = low concentration 0.7 mg/Kg intragastric, Aβ1-42 rats
[11] = medium concentration 3.5 mg/Kg intragastric, Aβ1-42 rats
[12] = Intragastric administration 215.23 mg/kg
[13] = Intragastric administration 239.15 mg/kg
[14] = Intragastric administration 265.72 mg/kg
[15] = Intragastric administration 295.25 mg/kg
[16] = Intragastric administration 450.00 mg/kg
[17] = Intragastric administration 500.00 mg/kg
[18] = Intravenous injection 16.18 mg/kg
[19] = Intravenous injection 20.48 mg/kg
[20] = Intravenous injection 25.60 mg/kg
[21] = Intravenous injection 32.00 mg/kg
[22] = Intravenous injection 40.00 mg/kg
[23] = Intravenous injection 50.00 mg/kg
[24] = Intragastric administration 122.88 mg/kg
[25] = Intragastric administration 153.60 mg/kg
[26] = Intragastric administration 240.00 mg/kg
[27] = Intragastric administration 300.00 mg/kg
[28] = Intravenous injection 16.40 mg/kg
[29] = Intravenous injection 18.23 mg/kg
[30] = Intravenous injection 20.25 mg/kg
[31] = Intravenous injection 23.04 mg/kg

## Cl.O=C1c2cc3c(cc2C2(CC2)N1CCC1CCN(Cc2ccccn2)CC1)OCO3 [Compound I-33, 6-[2-[1-(2-pyridylmethyl)-4-piperidyl]ethyl]spiro[[1,3]dioxolo[4,5-f]isoindole-7,1′-cyclopropane]-5-one hydrochloride]
[1]
  potency on acetylcholinesterase compared with positive control drug donepezil hydrochloride: even lower
  IC50: 950 nM
[2]; [8]
  effect on period required for reaching the platform for the first time (latent period): significantly shorten the period required for reaching the platform for the first time
  effect on times of crossing the platform: significantly increases the times of crossing the platform
[2]; Morris water maze, 0.7, 3.5 and 7 mg/Kg, hydrochloride
  improvement of learning and memory disorder of rats induced by Aβ1-42: significantly improve the learning and memory disorder of rats induced by intracerebroventricular injection of Aβ1-42; also recorded: stronger effects of improving learning and memory
[2]; [9]
  The period of reaching the platform for the first time (latent period): 14.87 ± 3.62
  times of crossing platform: 3.20 ± 0.36
[2]; [10]
  The period of reaching the platform for the first time (latent period): 21.37 ± 3.64
  times of crossing platform: 3.00 ± 0.33
[2]; [11]
  The period of reaching the platform for the first time (latent period): 18.10 ± 6.54
  times of crossing platform: 3.40 ± 0.43
[3]; iv
  LD50: 31.3 mg/kg
[3]; po
  LD50: 303 mg/kg
[4]; [12]
  Mortality (%): 0%
  Number of death: 0
[4]; [13]
  Mortality (%): 0%
  Number of death: 1
[4]; [14]
  Mortality (%): 40%
  Number of death: 2
[4]; [15]
  Mortality (%): 60%
  Number of death: 3
[4]; [16]
  Mortality (%): 80%
  Number of death: 4
[4]; [17]
  Mortality (%): 100%
  Number of death: 5
[4]; [18]
  Mortality (%): 0%
  Number of death: 0
[4]; [19]
  Mortality (%): 0%
  Number of death: 0
[4]; [20]
  Mortality (%): 20%
  Number of death: 1
[4]; [21]
  Mortality (%): 60%
  Number of death: 3
[4]; [22]
  Mortality (%): 80%
  Number of death: 4
[4]; [23]
  Mortality (%): 100%
  Number of death: 5
[4]
  median lethal dose by oral and intravenous administration, times of those of donepezil hydrochloride: 8-10 times
[4]; hydrochloride
  toxicity compared with donepezil hydrochloride: lower toxicity than donepezil hydrochloride; also recorded: much lower toxicity
[5]; rat plasma, oral 5 mg/kg
  t1/2z: 2.085 ± 0.392
[5]; rat, oral, same dosage 5 mg/kg
  absorption degree (AUC) and peak concentration (Cmax) compared with donepezil hydrochloride: significantly higher than those of donepezil hydrochloride

## Cl.O=C1c2cc3c(cc2C2(CC2)N1CCC1CCN(Cc2ccccc2)CC1)OCO3 [Compound I-34, 6-[2-(1-benzyl-4-piperidyl)ethyl]spiro[[1,3]dioxolo[4,5-f]isoindole-7,1′-cyclopropane]-5-one hydrochloride]
[1]; hydrochloride
  potency on acetylcholinesterase compared with positive control drug donepezil hydrochloride: slightly lower potency than the positive control drug; also recorded: comparable inhibition activity on acetylcholinesterase with donepezil hydrochloride
[1]
  IC50: 197 nM
[3]; iv
  LD50: 20.1 mg/kg
[3]; po
  LD50: 171 mg/kg
[4]; [24]
  Mortality (%): 0%
  Number of death: 0
[4]; [25]
  Mortality (%): 40%
  Number of death: 2
[4]; [26]
  Mortality (%): 80%
  Number of death: 4
[4]; [27]
  Mortality (%): 100%
  Number of death: 5
[4]; [28]
  Mortality (%): 0%
  Number of death: 0
[4]; [29]
  Mortality (%): 20%
  Number of death: 1
[4]; [30]
  Mortality (%): 60%
  Number of death: 3
[4]; [31]
  Mortality (%): 80%
  Number of death: 4
[4]; [20]
  Mortality (%): 100%
  Number of death: 5
[4]
  median lethal dose by oral and intravenous administration, times of those of donepezil hydrochloride: 4-7 times
  toxicity compared with donepezil hydrochloride: lower toxicity than donepezil hydrochloride

## O=C1c2cc3c(cc2C2(CC2)N1CCC1CCN(Cc2ccccn2)CC1)OCO3 [Compound I-35, 6-[2-[1-(2-pyridylmethyl)-4-piperidyl]ethyl]spiro[[1,3]dioxolo[4,5-f]isoindole-7,1′-cyclopropane]-5-one phosphate]
[1]; modified Ellman method
  IC50: 601 nM
[5]; rat, in vivo, po, 5 mg/kg
  MRT(0-t): 2.343 ± 0.206
  MRT(0-∞): 2.483 ± 0.265
  t1/2z: 1.965 ± 0.296

## CC1(C)c2cc3c(cc2C(=O)N1CCC1CCN(Cc2ccccc2F)CC1)OCO3 [Compound I-14, 6-[2-[1-[(2-fluorophenyl)methyl]-4-piperidyl]ethyl]-7,7-dimethyl-[1,3]dioxolo[4,5-f]isoindol-5-one]
[1]
  potency on acetylcholinesterase compared with positive control drug donepezil hydrochloride: relative low activity
  IC50: > 2000 nM
[6]
  latent period day 1: 57.1 ± 7.6 s
  latent period day 2: 60 ± 0 s
  latent period day 3: 60 ± 0 s
  latent period day 4: 54.2 ± 8.9 s
  latent period day 5: 49.9 ± 14.7 s
  times of crossing platform: 1.3 ± 1.8
[7]
  MDA(nmol/mgprot): 7.36 ± 1.3 nmol/mgprot
